According to patent US20240279263A1, “NOVEL SEA ALGAE-DERIVED ALKYL-AGARBIOSIDE, PREPARATION METHOD THEREFOR, OR USE THEREOF” (KOREA UNIVERSITY RESEARCH AND BUSINESS FOUNDATION, priority 2021, published 2024):

Experiments:
HaCaT cells = test: MTT cytotoxicity test in HaCaT keratinocytes; type: cell-based, human; conditions: for Cytotoxicity: HaCaT cells, AB below 100 µg/mL
Experimental: Cytotoxicity tests were performed using the MTT(3-4,5-dimethylthiazol-2yl)-2,5-diphenyl-2H-tetrazolium bromide) assay. HaCaT cells were cultured in an animal cell incubator at 37° C. and 5% CO2 in a laboratory using Dulbecco's Modified Eagle Medium (DMEM) containing 10% (v/v) FBS, 100 U/mL penicillin, and 100 µg/mL streptomycin as antibiotics. The produced AB was dissolved in DMSO and added to the culture medium at […], and cells were cultured in the medium for 24 hours. The cells were treated with an MTT solution (5 mg/mL) and cultured for another 4 hours, and then an amount of the produced formazan as a blue crystal, was measured by measuring absorbance at 595 nm using an ELISA reader. Toxicity to cells was expressed as a percentage of the average absorbance value of each control group. To investigate the cytotoxicity of AB in HaCaT keratinocytes, when AB was treated at a concentration of […], the degree of change in cell proliferation was calculated compared to control groups treated with only DMSO. The results of Example 1 are shown in A of FIG. 1.
B of FIG. 1 illustrates the presence or absence of a cytotoxic effect when HaCaT keratinocytes are treated with AB according to an example of the present invention. Cell viability was measured to be 100% or more at 100 µg/mL AB.

[1] = pH stability (degree of denaturation over time at 25° C.); type: physicochemical; conditions: for Stability over time at pH 3: pH 3 (20 mM citrate); for Stability over time at pH 7: pH 7 (20 mM Tris-HCl)
Experimental: The pH stability of AB was assessed (C of FIG. 1). For a pH stability experiment, the degree of denaturation in each sample (AB) over time was measured at 25° C. under conditions of pH 3 (20 mM citrate), pH 7 (20 mM Tris-HCl), and pH 9 (20 mM Tris-HCl). […] Since the buffer and AB peaks were not separated at pH 3 using HPLC, AB was quantified through GC/MS analysis. The derivatization process for GC/MS analysis is as follows. After drying a purified sample with a speed vac, 10 μL of 40 mg/mL O-methylhydroxylamine hydrochloride in pyridine was added and reacted at 30° ° C. and 200 rpm for 90 minutes. Then, 45 μL of N-methyl-N-(trimethylsilyl)trifluoroacetamide was added and reacted at 37° C. and 200 rpm for 30 minutes. Instrument conditions for GC/MS analysis are as follows. A DB5-MS capillary column was used in the analysis, and the GC column temperature condition was maintained at 50° C. for 1 minute and then raised to 280° C. and maintained for 5 minutes. 1 μL of sample was analyzed in a splitless mode. Each concentration of […] at pH 7 and pH 9 was analyzed using HPLC. HPX-87H was used as a column, and the sample was analyzed at a column temperature of 65° C. and a flow rate of 0.5 mL/min. 0.005 M sulfuric acid was used as a mobile phase.

HAS2 [2] = test: HAS2 expression in HaCaT cells by Western blot (moisturizing effect); type: cell-based, human; conditions: for HAS2 expression compared to L-AHG: same concentration (100 μg/mL, FIG. 7)
Description: Hyaluronan (HA) is a glycosaminoglycan composed of D-glucuronic acid and N-acetyl-D-glucosamine. Due to its ability to retain large amounts of water, HA plays an important role in regulating hydration and osmotic pressure. […] is synthesized in cell membranes by HAS1, HAS2, and HAS3, and HAS2 in particular appears in human normal tissues. […] Therefore, increasing HAS2 expression may be a great strategy to maintain skin homeostasis. To determine the AB induction time and AB concentration for HAS2 expression, Western blot analysis was performed. Cells used for the analysis were HaCaT cells, which were cultured at 37° C. in a 5% CO2 atmosphere using DMEM with 10% FBS and penicillin/streptomycin. Cells (1×10^5) were cultured in 6-cm dishes for 24 hours and then starved in serum-free medium for another 24 hours to remove the FBS effect on the activation of the kinase. Then, AB was treated at a certain time and concentration. Cells were lysed with a lysis buffer [20 mM Tris-HCl (pH 7.5), 150 mM NaCl, 1 mM Na2EDTA, 1 mM EGTA, 1% Triton X-100, 2.5 mM sodium pyrophosphate, 1 mM β-glycerophosphate, 1 mM Na3VO4, […] leupeptin, 1 mM phenylmethylsulfonyl fluoride (PMSF), and a protease inhibitor cocktail tablet]. The protein concentration was measured using a dye-conjugated protein assay kit (Bio-Rad Laboratories Inc.) according to the manufacturer's instructions. Dissolved proteins (20-40 μg) were subjected to 10% SDS-PAGE and transferred to a polyvinylidene fluoride (PVDF) membrane by electrophoresis (Millipore Corp., Bedford, MA, USA). After blotting, the membrane was blocked with 5% skim milk for 2 hours and incubated overnight at 4° C. with a primary antibody […]. Subsequently, the membrane was incubated with a secondary antibody (goat anti-rabbit IgG HRP-conjugated secondary antibody), and the protein bound to the antibody was detected using a chemiluminescence detection kit (Amersham Pharmacia Biotech, Piscataway, NJ). Representative values of two independent experiments were used as data. […] The moisturizing activity of AB was confirmed from the result.

[3] = Temperature stability (denaturation/decomposition over time); type: physicochemical; conditions: for Time for which stability was maintained at 4° C. / Time for which stability was maintained at 30° C.: HPLC
Experimental: The temperature stability of agarobiose was tested. The experimental method measured the denaturation/decomposition degrees of AB and ethyl-agarobioside over time at 4° C., 30° C., and 45° C. […] AB and ethyl-agarobioside were quantified using HPLC.

HAS2 [4] = conditions: Korean Registered Patent No. 10-1525298; cited from earlier work

SMILES: CCOC1O[C@H]2CO[C@H]([C@@H]2O[C@@H]2O[C@H](CO)[C@H](O)[C@H](O)[C@H]2O)[C@@H]1O (stereo partly shown) [ethyl-agarobioside]
- Cytotoxicity (HaCaT cells): without cytotoxicity
- Stability over time at pH 3 [1]: maintained
- Stability over time at pH 7 [1]: maintained
- Stability over time at pH 9 ([1]; pH 9 (20 mM Tris-HCl)): maintained
- HAS2 expression compared to L-AHG (HAS2 [2]): greatly increased
- Moisturizing activity (HAS2 expression level) (HAS2 [2]; same manner as Example 1): exhibits moisturizing activity
- Stability at 45° C. [3]: less stable than AB after 6 weeks
- Time for which stability was maintained at 4° C. [3]: 15 weeks
- Time for which stability was maintained at 30° C. [3]: 15 weeks
- Conversion product at 45° C. ([3]; 45° C., HPLC analysis of reactant components): converted to AB

SMILES: O=C[C@@H](O)[C@@H]1OC[C@H](O)[C@H]1O [L-AHG, 3,6-anhydro-L-galactose]
- Moisturizing activity in HaCaT cells (previous study) (HAS2 [4]): has moisturizing activity

SMILES: OC[C@H]1O[C@@H](O[C@H]2[C@H]3OC[C@@H]2OC(O)[C@H]3O)[C@H](O)[C@@H](O)[C@H]1O (mixture of isomers) [AB, agarobiose]
- Cytotoxicity (HaCaT cells): no cytotoxicity
- Cell viability (HaCaT cells; HaCaT keratinocytes, 24 hours, 100 µg/mL AB, vs DMSO control): ≥ 100%
- Stability over time at pH 3 [1]: stable
- Stability over time at pH 7 [1]: stable
- Time to complete denaturation / decomposition at pH 9 ([1]; pH 9 (20 mM Tris-HCl)): ≤ 6 weeks
- HAS2 expression, concentration dependence (HAS2 [2]; Western blot): increased HAS2 expression in a concentration-dependent manner
- HAS2 expression (HAS2 [2]; Western blot, 3 hours after treatment): increased HAS2 expression
- HAS2 expression compared to L-AHG (HAS2 [2]): greatly increased
- Stability at 45° C. [3]: stability slowly decreased
- Time for which stability was maintained at 4° C. [3]: 15 weeks
- Time for which stability was maintained at 30° C. [3]: 15 weeks
